Reference: ChEMBL document CHEMBL5331122, “Structure-Activity Relationship Study of Antimicrobial Peptide PE2 Delivered Novel Linear Derivatives with Potential of Eradicating Biofilms and Low Incidence of Drug Resistance” (J Med Chem, 2023)
≈ marks a conversion by molar mass, not a printed value. Calls of active or inactive are those of the source. The rule behind the calls is not given here. Where a SMILES comes first, the peptide text is derived from it. Bridges are numbered along the chain shown (N, C = ends). [ ]: non-standard residue; d: D form. The star is where a group is joined. Heptanoyl(6-Me) = CC(C)CCCCC(=O)*; Dab = NCC[C@H](N)C(=O)O

How the values were obtained:
[1] = system: Bacillus subtilis; experiment: Antibacterial activity against Bacillus subtilis ATCC 23857 assessed as bacterial growth inhibition incubated for 18 hrs by broth microdilution method; assay type: functional
[2] = Hemolytic activity in mouse red blood cells assessed as hemolysis at 256 microg/ml incubated for 1 hr relative to control; assay type: toxicity, cell-based, Erythrocyte; settings: red blood cells (erythrocytes), at 256 µg/mL, read-out: Activity
[3] = system: Escherichia coli; experiment: Antibacterial activity against Escherichia coli ATCC 25922 assessed as bacterial growth inhibition incubated for 18 hrs by broth microdilution method; assay type: functional
[4] = system: Erythrocyte; experiment: Hemolytic activity in mouse red blood cell assessed as hemolysis incubated for 1 hr; assay type: toxicity, cell-based; settings: dose 4-256 µg/ml
[5] = system: Enterococcus faecalis; experiment: Antibacterial activity against Enterococcus faecalis ATCC 29212 assessed as bacterial growth inhibition incubated for 18 hrs by broth microdilution method; assay type: functional
[6] = system: Pseudomonas aeruginosa; experiment: Antibacterial activity against Pseudomonas aeruginosa ATCC 27853 assessed as bacterial growth inhibition incubated for 18 hrs by broth microdilution method; assay type: functional
[7] = system: Staphylococcus aureus; experiment: Antibacterial activity against Staphylococcus aureus ATCC 25923 assessed as bacterial growth inhibition incubated for 18 hrs by broth microdilution method; assay type: functional
[8] = system: Klebsiella pneumoniae; experiment: Antibacterial activity against Klebsiella pneumoniae ATCC 700603 assessed as bacterial growth inhibition incubated for 18 hrs by broth microdilution method; assay type: functional
[9] = system: Escherichia coli; experiment: Antibacterial activity against Escherichia coli ATCC 25922 assessed as fold increase in MIC in presence of MgCl2; assay type: functional
[10] = system: Staphylococcus aureus; experiment: Antibacterial activity against Staphylococcus aureus ATCC 25923 assessed as fold increase in MIC in presence of FeCl3; assay type: functional
[11] = system: Staphylococcus aureus; experiment: Antibacterial activity against Staphylococcus aureus ATCC 25923 assessed as fold increase in MIC in presence of KCl; assay type: functional
[12] = system: Escherichia coli; experiment: Antibacterial activity against Escherichia coli ATCC 25922 assessed as fold increase in MIC in presence of NaCl; assay type: functional
[13] = system: Escherichia coli; experiment: Antibacterial activity against Escherichia coli ATCC 25922 assessed as fold increase in MIC in presence of FeCl3; assay type: functional
[14] = system: Escherichia coli; experiment: Antibacterial activity against Escherichia coli ATCC 25922 assessed as fold increase in MIC in presence of ZnCl2; assay type: functional
[15] = system: Staphylococcus aureus; experiment: Antibacterial activity against Staphylococcus aureus ATCC 25923 assessed as fold increase in MIC in presence of MgCl2; assay type: functional
[16] = system: Staphylococcus aureus; experiment: Antibacterial activity against Staphylococcus aureus ATCC 25923 assessed as fold increase in MIC in presence of NaCl; assay type: functional
[17] = system: Escherichia coli; experiment: Antibacterial activity against Escherichia coli ATCC 25922 assessed as fold increase in MIC in presence of KCl; assay type: functional
[18] = system: Staphylococcus aureus; experiment: Antibacterial activity against Staphylococcus aureus ATCC 25923 assessed as fold increase in MIC in presence of ZnCl2; assay type: functional
[19] = system: Escherichia coli; experiment: Antibacterial activity against rifampicin-resistant Escherichia coli ATCC 25922 assessed as reduction in bacterial growth incubated for 18 hrs by broth microdilution method; assay type: functional
[20] = system: Staphylococcus aureus; experiment: Induction of drug resistance against Staphylococcus aureus ATCC 25923 assessed as fold increase in MIC measured upto 15 passages by sequential passaging method; assay type: functional
[21] = system: Escherichia coli; experiment: Induction of drug resistance against Escherichia coli ATCC 25922 assessed as fold increase in MIC measured upto 15 passages by sequential passaging method; assay type: functional
[22] = system: Staphylococcus aureus; experiment: Antibacterial activity against rifampicin-resistant Staphylococcus aureus ATCC 25923 assessed as reduction in bacterial growth incubated for 18 hrs by broth microdilution method; assay type: functional
[23] = system: Escherichia coli; experiment: Induction of drug resistance against Escherichia coli ATCC 25922measured after 5 to 7 passages by sequential passaging method; assay type: functional

With `CCCCCC(=O)N[C@@H](CCN)C(=O)N[C@H](C(=O)N[C@@H](CCN)C(=O)N[C@H](Cc1ccccc1)C(=O)N[C@@H](CC(C)C)C(=O)N[C@@H](CCN)C(=O)N[C@@H](C(=O)N[C@@H](CC(C)C)C(=O)N[C@@H](Cc1ccccc1)C(N)=O)C(C)C)[C@@H](C)CC` as the compound, how does the MIC [1] read?
Its MIC is 4 µg/mL (≈ 3.48 µM).

And the hemolysis at 1 h, 256 µg/mL [2]?
Its hemolysis at 1 h, 256 µg/mL is less than 5%.

What about the MIC [3] of the same compound?
The MIC was 16 µg/mL (≈ 13.9 µM).

And the HC10 [4]?
Its HC10 is 512 µg/mL.

And the MIC [5]?
Its MIC is 64 µg/mL (≈ 55.7 µM).

And the MIC [6]?
Its MIC is 4 µg/mL (≈ 3.48 µM).

What about the MIC [7] of the same compound?
The MIC was 16 µg/mL (≈ 13.9 µM).

What about the MIC [8] of the same compound?
The MIC was 32 µg/mL (≈ 27.9 µM).

What does the source list for `CCCCCC(=O)N[C@@H](CCN)C(=O)N[C@H](C(=O)N[C@@H](CCN)C(=O)N[C@H](Cc1ccccc1)C(=O)N[C@@H](CC(C)C)C(=O)N[C@@H](CCN)C(=O)N[C@@H](C(=O)N[C@@H](CC(C)C)C(=O)N[C@H](C(N)=O)[C@@H](C)O)C(C)C)[C@@H](C)CC`?
MIC [1]: 4 µg/mL (≈ 3.63 µM); hemolysis at 1 h, 256 µg/mL [2]: < 10%; MIC [3]: 16 µg/mL (≈ 14.5 µM); HC10 [4]: 512 µg/mL; MIC [5]: 128 µg/mL (≈ 116 µM); MIC [6]: 4 µg/mL (≈ 3.63 µM); MIC [7]: 32 µg/mL (≈ 29 µM); MIC [8]: 32 µg/mL (≈ 29 µM)

Which MIC [1] does the source give for `CCCCCC(=O)N[C@@H](CCN)C(=O)N[C@H](C(=O)N[C@@H](CCN)C(=O)N[C@H](Cc1ccccc1)C(=O)N[C@@H](CC(C)C)C(=O)N[C@H]1CCNC(=O)[C@H]([C@@H](C)O)NC(=O)[C@H](CC(C)C)NC(=O)[C@@H](C(C)C)NC1=O)[C@@H](C)CC` here?
The MIC was 4 µg/mL (≈ 3.69 µM).

And the hemolysis at 1 h, 256 µg/mL [2]?
Its hemolysis at 1 h, 256 µg/mL is less than 5%.

And the MIC [3]?
Its MIC is 16 µg/mL (≈ 14.7 µM).

And the HC10 [4]?
The HC10 was 512 µg/mL.

What about the MIC [5] of the same compound?
Its MIC is greater than 128 µg/mL.

What about the MIC [6] of the same compound?
The MIC was 128 µg/mL (≈ 118 µM).

And the MIC [7]?
The MIC was 32 µg/mL (≈ 29.5 µM).

And the MIC [8]?
Its MIC is 128 µg/mL (≈ 118 µM).

What does the source list for `CCCCCC(=O)N[C@@H](CCN)C(=O)N[C@H](C(=O)N[C@@H](CCN)C(=O)N[C@H](Cc1ccccc1)C(=O)N[C@@H](CC(C)C)C(=O)N[C@@H](CCN)C(=O)N[C@@H](C(=O)N[C@@H](CC(C)C)C(=O)N[C@@H](C)C(N)=O)C(C)C)[C@@H](C)CC`?
MIC [1]: 8 µg/mL (≈ 7.46 µM); hemolysis at 1 h, 256 µg/mL [2]: < 5%; MIC [3]: 32 µg/mL (≈ 29.8 µM); HC10 [4]: 512 µg/mL; MIC [5]: > 128 µg/mL; MIC [6]: 4 µg/mL (≈ 3.73 µM); MIC [7]: 64 µg/mL (≈ 59.7 µM); MIC [8]: 64 µg/mL (≈ 59.7 µM)

With `CC(C)CCCCC(=O)N[C@@H](CCN)C(=O)N[C@H](C(=O)N[C@@H](CCN)C(=O)N[C@H]1CCNC(=O)[C@H]([C@@H](C)O)NC(=O)[C@H](CCN)NC(=O)[C@H](CCN)NC(=O)[C@H](CC(C)C)NC(=O)[C@@H](Cc2ccccc2)NC(=O)[C@H](CCN)NC1=O)[C@@H](C)O` ({Heptanoyl(6-Me)}-[Dab]T[Dab][Dab][Dab][dF]L[Dab][Dab]T; lactam 4-C) as the compound, how does the “fold change (FC)” value [9] read?
The value was “<=2”.

What about the MIC [1] of the same compound?
The MIC was 8 µg/mL (≈ 6.73 µM).

And the “fold change (FC)” value [10]?
The value was 4.

And the “fold change (FC)” value [11]?
Its value is 4.

What about the “fold change (FC)” value [12] of the same compound?
Its value is “<=2”.

And the MIC [3]?
The MIC was less than 1 µg/mL.

And the “fold change (FC)” value [13]?
The value was “<=2”.

And the “fold change (FC)” value [14]?
The value was “<=2”.

And the MIC [5]?
The MIC was 128 µg/mL (≈ 108 µM).

What about the MIC [6] of the same compound?
Its MIC is 2 µg/mL (≈ 1.68 µM).

What about the “fold change (FC)” value [15] of the same compound?
The value was 4.

What about the “fold change (FC)” value [16] of the same compound?
The value was 4.

And the MIC [7]?
The MIC was 16 µg/mL (≈ 13.5 µM).

What about the “fold change (FC)” value [17] of the same compound?
Its value is “<=2”.

And the MIC [8]?
Its MIC is 4 µg/mL (≈ 3.36 µM).

What about the “fold change (FC)” value [18] of the same compound?
The value was 4.

Which MIC [1] does the source give for `CCCCCC(=O)N[C@@H](CCN)C(=O)N[C@H](C(=O)N[C@@H](CCN)C(=O)N[C@H](Cc1ccccc1)C(=O)N[C@@H](CC(C)C)C(=O)N[C@@H](CCN)C(=O)N[C@@H](C(=O)N[C@@H](CC(C)C)C(=O)N[C@@H](Cc1c[nH]c2ccccc12)C(N)=O)C(C)C)[C@@H](C)CC` here?
The MIC was 4 µg/mL (≈ 3.37 µM).

What about the hemolysis at 1 h, 256 µg/mL [2] of the same compound?
The hemolysis at 1 h, 256 µg/mL was less than 5%.

What about the MIC [3] of the same compound?
Its MIC is 16 µg/mL (≈ 13.5 µM).

What about the HC10 [4] of the same compound?
The HC10 was 512 µg/mL.

What about the MIC [5] of the same compound?
Its MIC is 32 µg/mL (≈ 26.9 µM).

And the MIC [6]?
The MIC was 4 µg/mL (≈ 3.37 µM).

What about the MIC [7] of the same compound?
The MIC was 8 µg/mL (≈ 6.74 µM).

And the MIC [8]?
The MIC was 32 µg/mL (≈ 26.9 µM).

What does the source list for `CO[C@H]1/C=C/O[C@@]2(C)Oc3c(C)c(O)c4c(O)c(c(/C=N/N5CCN(C)CC5)c(O)c4c3C2=O)NC(=O)/C(C)=C\C=C\[C@H](C)[C@H](O)[C@@H](C)[C@@H](O)[C@@H](C)[C@H](OC(C)=O)[C@@H]1C` [RIFAMPIN]?
MIC [19]: 4100 µg/mL (≈ 4980 µM); fold change (FC) [20]: 512; MIC [1]: < 1 µg/mL; MIC [3]: 4 µg/mL (≈ 4.86 µM); MIC [5]: < 1 µg/mL; MIC [6]: 32 µg/mL (≈ 38.9 µM); fold change (FC) [21]: 64; MIC [22]: 2050 µg/mL (≈ 2490 µM); MIC [7]: < 1 µg/mL; MIC [8]: 32 µg/mL (≈ 38.9 µM); Activity [23]: Active

With `CCCCCC(=O)N[C@@H](CCN)C(=O)N[C@H](C(=O)N[C@@H](CCN)C(=O)N[C@H](Cc1ccccc1)C(=O)N[C@@H](CC(C)C)C(=O)N[C@@H](CCN)C(=O)N[C@@H](C(=O)N[C@@H](CC(C)C)C(=O)N[C@H](C(N)=O)[C@@H](C)CC)C(C)C)[C@@H](C)CC` as the compound, how does the MIC [1] read?
Its MIC is 8 µg/mL (≈ 7.18 µM).

And the hemolysis at 1 h, 256 µg/mL [2]?
Its hemolysis at 1 h, 256 µg/mL is less than 5%.

What about the MIC [3] of the same compound?
The MIC was 16 µg/mL (≈ 14.4 µM).

What about the HC10 [4] of the same compound?
Its HC10 is 512 µg/mL.

And the MIC [5]?
The MIC was 128 µg/mL (≈ 115 µM).

And the MIC [6]?
Its MIC is 4 µg/mL (≈ 3.59 µM).

And the MIC [7]?
The MIC was 32 µg/mL (≈ 28.7 µM).

What about the MIC [8] of the same compound?
Its MIC is 32 µg/mL (≈ 28.7 µM).
